Reference: article PMC11783063, “Design, synthesis, and apoptotic antiproliferative action of new benzimidazole/1,2,3-triazole hybrids as EGFR inhibitors” (Frontiers in Chemistry, 2025)

What was measured:
[1] = system: MCF-10A normal human mammary gland epithelial cell line; test: Cell viability assay (MTT) on MCF-10A normal cells; conditions: dose of 50 μM
Method: (§3) The medium in which cells were propagated contained Dulbecco's modified Eagle's medium (DMEM)/ Ham's F-12 medium (1:1) supplemented with epidermal growth factor (20 ng/mL), hydrocortisone (500 ng/mL), insulin (10 μg/mL), 2 mM glutamine and 10% foetal calf serum. After every 2-3 days, the cells were passed using trypsin ethylenediamine tetra acetic acid (EDTA). The cells were seeded at a density of 10^4 cells mL^-1 in flat-bottomed culture plates containing 96 wells each. After 24 h, medium was removed from the plates and the compounds in (in 0.1% DMSO) were added (in 200 μL medium to yield a final concentration of 0.1% v/v) to the wells of plates. A single compound was designated with four wells followed by incubation of plates for 96h at 37°C. After incubation, medium was removed completely from the plates followed by addition of MTT (0.4 mg/mL in medium) to each well and subsequent incubation of plates for 3h. MTT (along with the medium) was removed and DMSO (150μL) was added to each well of the culture plates, followed by vortexing and subsequent measurement of absorbance (at 540 nm) using microplate reader.

[2] = Cell viability assay (MTT) on MCF-10A normal cells; conditions: human, MCF-10A normal mammary gland epithelial cells
Method: as §3

Bax = Bax activation assay in MCF-7 cells; format: cell-based, human; conditions: for Bax Conc: compound at its IC50; for Bax Fold change: vs untreated control
Method: (§1) The current study supplied compounds 6i and 10e to breast (MCF-7) cancer cell lines at their respective IC50 values. This led to a notable elevation of pro-apoptotic Bax expression, with a fold increase of 34 for compound 6i and 36 for compound 10e.
(§2) Compounds 6i and 10e were assessed for their ability to activate caspase-3, caspase-8, and Bax, as well as to downregulate the anti-apoptotic protein Bcl2 in the MCF-7 breast cancer cell line ([Abdelbaset et al., 2019]). Supplementary Appendix A provides more details.
Bring all reagents, except the human Bax-α Standard, to room temperature for at least 30 minutes prior to opening. The human Bax-α Standard solution should not be left at room temperature for more than 10 minutes. All standards, controls and samples should be run in duplicate. Refer to the Assay Layout Sheet to determine the number of wells to be used and put any remaining wells with the desiccant back into the pouch and seal the ziploc. Store unused wells at 4 °C. Pipet 100 μL of Assay Buffer into the S0 (0 pg/mL standard) wells. Pipet 100 μL of Standards #1 through #6 into the appropriate wells. Pipet 100 μL of the Samples into the appropriate wells. Tap the plate gently to mix the contents. Seal the plate and incubate at room temperature on a plate shaker for 1 hour at ~500 rpm. Empty the contents of the wells and wash by adding 400 μL of wash solution to every well. Repeat the wash 4 more times for a total of 5 washes. After the final wash, empty or aspirate the wells and firmly tap the plate on a lint free paper towel to remove any remaining wash buffer. Pipet 100 μL of yellow Antibody into each well, except the Blank. Seal the plate and incubate at room temperature on a plate shaker for 1 hour at ~500 rpm. Empty the contents of the wells and wash by adding 400 μL of wash solution to every well. Repeat the wash 4 more times for a total of 5 washes. After the final wash, empty or aspirate the wells and firmly tap the plate on a lint free paper towel to remove any remaining wash buffer. Add 100 μL of blue Conjugate to each well, except the Blank. Seal the plate and incubate at room temperature on a plate shaker for 30 minutes at ~500 rpm. Empty the contents of the wells and wash by adding 400 μL of wash solution to every well. Repeat the wash 4 more times for a total of 5 washes. After the final wash, empty or aspirate the wells and firmly tap the plate on a lint free paper towel to remove any remaining wash buffer. Pipet 100 μL of Substrate Solution into each well. Incubate for 30 minutes at room temperature on a plate shaker at ~500 rpm. Pipet 100 μL Stop Solution to each well. Blank the plate reader against the Blank wells, read the optical density at 450 nm. Calculate the average net Optical Density (OD) bound for each standard and sample by subtracting the average Blank OD from the average OD for each standard and sample. Using linear graph paper, plot the Average Net OD for each standard versus Bax concentration in each standard. Approximate a straight line through the points. The concentration of Bax in the unknowns can be determined by interpolation.

Bcl-2 = Bcl-2 inhibition assay in MCF-7 cells; format: cell-based, human; conditions: for Bcl-2 Conc: compound at its IC50
Method: as §1, §2
Mix all the reagents thoroughly without foaming before use. Wash the microwells twice with approximately 300 μL Wash Buffer per well with thorough aspiration of microwell contents between washes. Take caution not to scratch the surface of the microwells. After the last wash, empty the wells and tap microwell strips on an absorbent pad or paper towel to remove excess Wash Buffer. Use the microwell strips immediately after washing or place upside down on a wet absorbent paper for not longer than 15 minutes. […] Add 100 μL of Sample Diluent in duplicate to all standard wells and to the blank wells. Prepare standard (1:2 dilution) in duplicate ranging from 32 ng/mL to 0.5 ng/mL. Add 100 μL of Sample Diluent, in duplicate, to the blank wells. Add 80 μL of Sample Diluent, in duplicate, to the sample wells. Add 20 μL of each Sample, in duplicate, to the designated wells. Add 50 μL of diluted biotin-conjugate to all wells, including the blank wells. Cover with a plate cover and incubate at room temperature, on a microplate shaker at 100 rpm if available, for 2 hours. Remove plate cover and empty the wells. Wash microwell strips 3 times as described in step 2. Add 100 μL of diluted Streptavidin-HRP to all wells, including the blank wells. Cover with a plate cover and incubate at room temperature, on a microplate shaker at 100 rpm if available, for 1 hour. Remove the plate cover and empty the wells. Wash microwell strips 3 times as described in step 2. Proceed to the next step. Pipette 100 μl of mixed TMB Substrate Solution to all wells, including the blanks. Incubate the microwell strips at room temperature (18° to 25°C) for about 15 minutes, if available on a rotator set at 100 rpm. Avoid direct exposure to intense light. The point, at which the substrate reaction is stopped, is often determined by the ELISA reader. Many ELISA readers record absorbance only up to 2.0 O.D. Therefore, the color development within individual microwells must be watched by the person running the assay and the substrate reaction stopped before positive wells are no longer properly detectable. Stop the enzyme reaction by quickly pipetting 100 μL of Stop Solution into each well, including the blank wells. It is important that the Stop Solution is spread quickly and uniformly throughout the microwells to completely inactivate the enzyme. Results must be read immediately after the Stop Solution is added or within one hour if the microwell strips are stored at 2 - 8°C in the dark. Read the absorbance of each microwell on a spectrophotometer using 450 nm as the primary wavelength.

[3] = system: MCF-7 (breast cancer cell line); test: Antiproliferative assay, MCF-7; format: cell-based, human; conditions: Homo sapiens, MCF7; read-out: Antiproliferative activity IC50 ± SEM, MCF-7
Text: Refer to Supplementary Appendix A for more information.
DMSO (0.1%) was used as control.

EGFR = EGFR (Homo sapiens, UniProt P00533); test: EGFR-TK inhibitory assay
Sequence of EGFR (P00533 669-1210): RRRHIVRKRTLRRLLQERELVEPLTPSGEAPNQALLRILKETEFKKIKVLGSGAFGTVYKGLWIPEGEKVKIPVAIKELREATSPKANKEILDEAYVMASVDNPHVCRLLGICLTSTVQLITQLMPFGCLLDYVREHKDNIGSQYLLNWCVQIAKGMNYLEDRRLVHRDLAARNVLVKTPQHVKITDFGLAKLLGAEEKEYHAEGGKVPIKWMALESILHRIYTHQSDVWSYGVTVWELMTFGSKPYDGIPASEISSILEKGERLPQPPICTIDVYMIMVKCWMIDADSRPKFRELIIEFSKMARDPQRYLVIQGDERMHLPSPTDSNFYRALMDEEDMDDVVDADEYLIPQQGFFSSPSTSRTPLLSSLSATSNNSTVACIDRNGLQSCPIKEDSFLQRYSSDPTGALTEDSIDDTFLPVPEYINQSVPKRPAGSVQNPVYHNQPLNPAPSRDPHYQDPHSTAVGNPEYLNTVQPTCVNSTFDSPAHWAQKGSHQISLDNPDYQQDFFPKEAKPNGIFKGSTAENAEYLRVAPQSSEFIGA
Method: To record autophosphorylation level, EGFR kinase assay was carried out on the basis of DELFIA/Time-Resolved Fluorometry. […] Each compound (10 µL) was incubated with recombinant enzyme (10 µL, 5 ng for EGFR, 1:80 dilution in 100 mM HEPES) for 10 min at 25 °C, subsequent to the addition of 5X buffer (10 µL, containing 2 mM MnCl2, 100 µM Na3VO4, 20 mM HEPES and 1 mM DTT) and ATP-MgCl2 (20 µL, containing 0.1 mM ATP and 50 mM MgCl2) and incubation for 1h. The negative and positive controls were included in each plate by the incubation of enzyme either with or without ATP-MgCl2. The liquid was removed after incubation and the plates were washed thrice using wash buffer. Europium-tagged antiphosphotyrosine antibody (75 µL, 400 ng) was added to each well followed by incubation of 1h and then washing of the plates using buffer. […] The autophosphorylation percentage inhibition by compounds was calculated using the following equation:

| IC50 [3] [nM] | IC50 (EGFR) [nM] | SMILES | Impact on non-tumor cells MCF-10A [1] | viability at 4 days, 50 µM [2] [%] | Bax Conc (Bax) [pg/mL] | Bax Fold change (Bax) | Bcl-2 Conc (Bcl-2) [ng/mL] | Bcl-2 Fold reduction (Bcl-2; vs untreated control) |
| --- | --- | --- | --- | --- | --- | --- | --- | --- |
| 28 ± 2 | 78 ± 5 | NS(=O)(=O)c1ccc(-n2cc(CSc3nc4ccccc4[nH]3)nn2)cc1 [6i, 4-(4-(((1H-benzimidazol-2-yl)thio)methyl)-1H-1,2,3-triazol-1-yl)benzene-sulfonamide] | no impact | 90 | 310 ± 3 | 34 | 0.85 |  |
| 24 ± 2 | 73 ± 4 | O=[N+]([O-])c1cccc(-n2cc(Cn3c(SCc4ccccc4)nc4ccccc43)nn2)c1 [10e] | no impact | 90 | 325 ± 3 | 36 | 0.70 | ~7 |
